Results taken from PubChem BioAssay (NCI).
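1) Cells in 96-well plates. 2) Compound, 48 h, 5 concentrations. 3) Linear interpolation between surrounding doses. 4) Unreached endpoint = highest concentration. The concentration for full growth arrest is given as TGI.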 Where a SMILES comes first, the peptide text is derived from it. The star is where a group is joined. Boc = CC(C)(C)OC(=O)*

Columns and labels:
Experiment in all cases: NCI-60 cell line screen, 48 h
K-562 leukemia = test system: K-562 leukemia
SK-MEL-5 melanoma = test system: SK-MEL-5 melanoma
HOP-62 NSCLC = test system: HOP-62 NSCLC
T-47D breast = test system: T-47D breast
SK-MEL-2 melanoma = test system: SK-MEL-2 melanoma
PC-3 prostate = test system: PC-3 prostate
U251 CNS = test system: U251 CNS
SK-OV-3 ovarian = test system: SK-OV-3 ovarian
SNB-75 CNS = test system: SNB-75 CNS
ACHN renal = test system: ACHN renal
A549 NSCLC = test system: A549 NSCLC
M14 melanoma = test system: M14 melanoma

Row | SMILES | TGI (K-562 leukemia) [µM] | TGI (SK-MEL-5 melanoma) [µM] | TGI (HOP-62 NSCLC) [µM] | TGI (T-47D breast) [µM] | TGI (SK-MEL-2 melanoma) [µM] | TGI (PC-3 prostate) [µM] | TGI (U251 CNS) [µM] | TGI (SK-OV-3 ovarian) [µM] | TGI (SNB-75 CNS) [µM] | TGI (ACHN renal) [µM] | TGI (A549 NSCLC) [µM] | TGI (M14 melanoma) [µM]
1 | O=c1[nH]cnc2c1ncn2[C@H]1CO[C@@H](CO)[C@@H]1O | > 100 | > 100 | > 100 | > 100 | > 100 | > 100 | > 100 | > 100 | > 100 | > 100 |  | 
2 | CC1=C(N2CC2)C(=O)c2nc3n(c2C1=O)CCC3O (centres undefined) | 5.06 | 0.0562 | 0.516 | 2.04 | 1.4 |  | 0.962 | 0.859 | 1.23 | 1.61 | 1.49 | 2.8
3 | COC(=O)c1ccc(OCc2ccc3oc(=O)c(-c4ccccc4)nc3c2)cc1 | > 100 | > 100 | > 100 |  | > 100 |  | > 100 |  | > 100 | > 100 | > 100 | > 100
4 | COc1nc2c(c(=O)n1C)N[C@@H]1[C@@H](O)[C@H](O)CO[C@@H]1N2 | > 100 | > 100 | > 100 | > 100 | > 100 | > 100 | > 100 | > 100 | > 100 |  | > 100 | > 100
5 | COc1cc2c(cc1OCCCC(=O)Nc1cc(C(=O)Nc3cc(C(=O)NCCCN(C)C)n(C)n3)n(C)n1)N=CC1CCCN1C2=O (centres undefined) | 27.7 | 30.1 | 68.7 | 53 | 31.2 | 99.3 | 39.5 | > 100 |  | 29.7 | > 100 | 33.8
6 | CC(NC(=O)C(NC(=O)OC(C)(C)C)C(C)C)C(=O)NCC(=O)O (stereo not drawn) (Boc-Val-Ala-Gly-OH; configuration not given here) | > 100 | > 100 | > 100 | > 100 | > 100 | > 100 | > 100 | > 100 |  | > 100 | > 100 | > 100
7 | CN(C)Cc1cc(N=Nc2ccc(Cl)c(Cl)c2)ccc1O | 14.1 | 25.2 | 15.3 | 23.2 |  | 23.8 | 23.6 |  | 20.3 | 16.2 | 27.5 | 31.9
8 | Cc1ccc(-n2c(C)nc3c2C(=O)c2ccccc2C3=O)cc1 | > 100 | > 100 | > 100 |  | > 100 |  | > 100 | > 100 | > 100 | > 100 | > 100 | > 100
9 | Clc1ccc(-c2nc(-c3ccc(Cl)cc3)[s+]s2)cc1 | > 100 | > 100 | > 100 | > 100 | > 100 | > 100 | > 100 | > 100 |  | > 100 | > 100 | > 100
10 | COc1ccc(-c2cc(-c3ccc(Nc4ccnc5cc(Cl)ccc45)cc3)nc(N)c2C#N)c2ccccc12 | > 100 | > 100 | > 100 | > 100 | > 100 | > 100 | > 100 |  | > 100 | > 100 | > 100 | > 100
11 | CC1(C)CCOC(=O)C(Cl)CC1Cl (centres undefined) | > 100 | > 100 | > 100 | > 100 | > 100 | > 100 | > 100 | > 100 |  | > 100 | > 100 | > 100
12 | O=C1/C(=C/c2cccs2)N=C(c2ccccc2)N1C1Nc2cc3c(cc2S1)NC(N1C(=O)/C(=C/c2cccs2)N=C1c1ccccc1)S3 (centres undefined) | > 100 | 37.4 | > 100 | > 100 | 36.9 | > 100 | 32.7 |  | 83.2 | > 100 | > 100 | 37.1
13 | COC1CCC(OC2CC(C3(C)CCC4(CC(O)C(C)C(C(C)/C=C(\C)C(=O)C(C)CC(C)C(=O)O)O4)O3)OC3(OC(C4OC(O)(CO)C(C)CC4C)CC3C)C2C)OC1C (centres undefined) |  | 0.464 | 2.87 | 1.22 | 0.576 | 3.14 | 0.817 | 10.9 | 0.568 | 4.9 | 1.97 | 0.287
14 | CC(=O)Nc1ccc(Nc2nc(=O)[nH]c(=O)[nH]2)cc1 |  | > 100 | > 100 | > 100 | > 100 | > 100 | > 100 | > 100 | > 100 | > 100 | > 100 | > 100
15 | CCCc1ccc(N=Cc2cc(OC)c(OC)c(OC)c2)cc1 | > 72.6 | > 100 | > 100 |  | > 100 |  | > 100 | > 100 | > 100 | > 100 | > 100 | > 100
16 | COc1cccc(-c2cc(=O)c3cc(C)cnc3[nH]2)c1 | > 100 | 3.17 | > 100 | > 100 | 7.45 | > 100 | > 100 | > 100 |  | > 100 |  | > 69.6
17 | CC1=C2N3C[C@@H](n4c(=O)n(C)c(=O)n43)C23CCC1n1c(=O)n(C)c(=O)n13 | > 100 | > 100 | > 100 |  |  |  |  |  | > 100 | > 100 |  | > 100
18 | O=C(c1cccs1)N(C(=O)N1CCC(c2ccccc2)CC1)c1ccccc1 | > 100 | 38.8 | 98.3 | 93.5 | > 100 | > 100 | > 100 | > 100 |  | > 100 |  | > 100
19 | COc1ccc2nc3c([N+](=O)[O-])ccc4c3c(c2c1)NCCN4C | > 100 | 2.86 | 3.16 | 7.73 |  | 4.54 | 13.4 | 9.23 |  | 5.92 | 2.57 | 2.8
20 | CC(C)n1c(=O)c2nn3c(=O)n(C(C)C)c(=O)c3nn2c1=O |  | > 100 | > 100 | > 100 | > 100 | > 100 |  | > 100 |  | > 100 | > 100 | > 100
